Assay results taken from PMC4604124, “In Vitro Characterization of the Pharmacological Properties of the Anti-Cancer Chelator, Bp4eT, and Its Phase I Metabolites” (PLoS ONE, 2015).
“And” between values parts separate entries of the source, which are not always exact repeats. Equal entries are not always repeated. Where two headings read alike, the source gives them in different places.

Key:
caspase 9 = test: Caspase activity, luminescent kit, caspase 9; format: cell-based, human; details: for kaspáza 9, raw signal / kaspáza 9, signal / viabilita: individual experiments by date; for kaspáza 9, raw signal, průměry / kaspáza 9, % kontroly / kaspáza 9, signal / viabilita, průměry: mean; for kaspáza 9, % kontroly / kaspáza 9, signal / viabilita / kaspáza 9, signal / viabilita, průměry: normalised to viability;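 for all read-outs here: MCF-7 cells treated at 100 nM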
H9c2 cardiomyoblasts = test: MTT cytotoxicity assay, H9c2 cells; format: cell-based, rat; details: for IC50: MTT; for MTT, relative to control (0 = 100): H9c2
Procedure, shortened: (§1)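 Cells were seeded 24 h at 37°C (MCF-7 5,000, HCT116 and A549 2,000, H9c2 10,000 cells/well; H9c2 then given serum- and pyruvate-free DMEM for 24 h) and exposed to compounds for 72 h in medium with 0.1% DMSO. MTT absorbance was read at 570 nm minus 690 nm; IC50 came from viability relative to untreated controls.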

[1] = tested on: MCF-7 cells prelabeled with 59Fe2-transferrin; test: Mobilization (efflux) of cellular 59Fe; format: cell-based, human; parameters: Efflux 59Fe / Efflux 59Fe, Ave: unit not given here
Procedure, shortened: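 Confluent MCF-7 cells prelabeled with 0.75 μM 59Fe2-Tf for 3 h at 37 °C, washed, then exposed to 25 μM compound for 3 h at 37 °C. 59Fe in cells and medium counted by γ-scintillation to give released fraction.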

[2] = tested on: MCF-7 human breast adenocarcinoma cells; test: MTT cytotoxicity assay, MCF-7 cells; format: cell-based; details: for IC50: MTT, read-out: IC50
Procedure, shortened: as §1

With `CCNC(=O)NN=C(c1ccccc1)c1ccccn1` [Z-Bp4eS, 2-benzoylpyridine 4-ethylsemicarbazone] the “kaspáza 9, raw signal” value (caspase 9; 3 hodiny) was 6118 and 2344.5 and 3460 and 2039.5, the “kaspáza 9, raw signal, průměry” value (caspase 9; 3 hodiny) was 3490.5 and the “kaspáza 9, % kontroly” value (caspase 9; 3 hodiny) was 100.62 % kontroly. For the same molecule, the “kaspáza 9, signal / viabilita” value (caspase 9; 3 hodiny) was 62.8087 and 24.0691 and 35.5211 and 20.938, the “kaspáza 9, signal / viabilita, průměry” value (caspase 9; 3 hodiny) was 35.8342 and the “kaspáza 9, raw signal” value (caspase 9; 24 hodin) was 4532 and 2581 and 5427.5 and 4043. The “kaspáza 9, raw signal, průměry” value (caspase 9; 24 hodin) was 4145.88, the “kaspáza 9, % kontroly” value (caspase 9; 24 hodin) was 101.82 % kontroly and the “kaspáza 9, signal / viabilita” value (caspase 9; 24 hodin) was 45.5674 and 25.9509 and 54.5713 and 40.6507. For the same molecule, the “kaspáza 9, signal / viabilita, průměry” value (caspase 9; 24 hodin) was 41.6851, the “kaspáza 9, raw signal” value (caspase 9; 72 hodin) was 21491.5 and 17542 and 23160 and 18381 and the “kaspáza 9, raw signal, průměry” value (caspase 9; 72 hodin) was 20143.6. For the same molecule, the “kaspáza 9, % kontroly” value (caspase 9; 72 hodin) was 100.13 % kontroly, the “kaspáza 9, signal / viabilita” value (caspase 9; 72 hodin) was 229.757 and 187.535 and 247.595 and 196.504 and the “kaspáza 9, signal / viabilita, průměry” value (caspase 9; 72 hodin) was 215.348. The IC50 (H9c2 cardiomyoblasts; H9c2, 72 h/37°C, mean ± SD, n ≥ 4, read-out: IC50) was 343 ± 95.1 µM, the “MTT, relative to control (0 = 100)” value (H9c2 cardiomyoblasts; 10 000 b/j, 1 μM, průměr (mean), sheet Z-Bp4eS) was 99.81 and the “MTT, relative to control (0 = 100)” value (H9c2 cardiomyoblasts; 10 000 b/j, 1 μM, single experiment (date), sheet Z-Bp4eS) was 102.371 and 103.08 and 95.5416 and 98.2281. The “MTT, relative to control (0 = 100)” value (H9c2 cardiomyoblasts; 10 000 b/j, 3 μM, průměr (mean), sheet Z-Bp4eS) was 93.78, the “MTT, relative to control (0 = 100)” value (H9c2 cardiomyoblasts; 10 000 b/j, 3 μM, single experiment (date), sheet Z-Bp4eS) was 92.602 and 95.2542 and 92.4159 and 94.8358 and the “MTT, relative to control (0 = 100)” value (H9c2 cardiomyoblasts; 10 000 b/j, 10 μM, průměr (mean), sheet Z-Bp4eS) was 89.06. The “MTT, relative to control (0 = 100)” value (H9c2 cardiomyoblasts; 10 000 b/j, 10 μM, single experiment (date), sheet Z-Bp4eS) was 88.6483 and 89.659 and 90.3674 and 87.5524, the “MTT, relative to control (0 = 100)” value (H9c2 cardiomyoblasts; 10 000 b/j, 30 μM, průměr (mean), sheet Z-Bp4eS) was 76.27 and the “MTT, relative to control (0 = 100)” value (H9c2 cardiomyoblasts; 10 000 b/j, 30 μM, single experiment (date), sheet Z-Bp4eS) was 77.9281 and 80.0605 and 74.6409 and 72.4521. For the same molecule, the “MTT, relative to control (0 = 100)” value (H9c2 cardiomyoblasts; 10 000 b/j, 100 μM, průměr (mean), sheet Z-Bp4eS) was 56.31, the “MTT, relative to control (0 = 100)” value (H9c2 cardiomyoblasts; 10 000 b/j, 100 μM, single experiment (date), sheet Z-Bp4eS) was 59.4912 and 57.2744 and 57.5228 and 50.9483 and the “MTT, relative to control (0 = 100)” value (H9c2 cardiomyoblasts; 10 000 b/j, 300 μM, průměr (mean), sheet Z-Bp4eS) was 53.60. The “MTT, relative to control (0 = 100)” value (H9c2 cardiomyoblasts; 10 000 b/j, 300 μM, single experiment (date), sheet Z-Bp4eS) was 52.3885 and 58.4831 and 53.7777 and 49.7549, the “MTT, relative to control (0 = 100)” value (H9c2 cardiomyoblasts; 10 000 b/j, 1000 μM, průměr (mean), sheet Z-Bp4eS) was 39.75 and the “MTT, relative to control (0 = 100)” value (H9c2 cardiomyoblasts; 10 000 b/j, 1000 μM, single experiment (date), sheet Z-Bp4eS) was 41.1185 and 45.5292 and 39.9014 and 32.4603. The IC50 (H9c2 cardiomyoblasts; Rattus norvegicus, H9c2, H9c2, 10 000 b/j, průměr (mean), sheet Z-Bp4eS, read-out: IC50 měřené) was 343 µM, the “Efflux 59Fe, Ave” value ([1]; average of all replicates) was 3.856 and the “Efflux 59Fe” value ([1]; single replicate (three per date)) was 5.4747 and 4.265 and 4.3539 and 3.0981 and 3.2068 and 3.9182 and 3.1551 and 3.9954 and 3.2369. The “Therapeutic index, IC50 non-cancerous cells / IC50 neoplastic cells” value ([2]; 3T3/MCF-7) was greater than 5.1, the “Therapeutic index, IC50 non-cancerous cells / IC50 neoplastic cells” value ([2]; H9c2/MCF-7) was 1.7 and the IC50 ([2]; MCF-7, 72 h/37°C, mean ± SD, n ≥ 4) was 198 ± 20.9 µM. For the same molecule, the IC50 ([2]; MCF-7, 5 000 b/j, průměr (mean)) was 198 µM, the IC50 ([2]; MCF-7, 5 000 b/j, single experiment (by date)) was 185 µM and 224 µM and 177 µM and 205 µM and the “MTT, value relative to 0 μM = 100” value ([2]; MCF-7, 5 000 b/j, koncentrace 1 μM, průměr (mean)) was 93.54. The “MTT, value relative to 0 μM = 100” value ([2]; MCF-7, 5 000 b/j, koncentrace 1 μM, single experiment (by date)) was 102.478 and 93.2821 and 90.3792 and 88.0305, the “MTT, value relative to 0 μM = 100” value ([2]; MCF-7, 5 000 b/j, koncentrace 3 μM, průměr (mean)) was 89.98 and the “MTT, value relative to 0 μM = 100” value ([2]; MCF-7, 5 000 b/j, koncentrace 3 μM, single experiment (by date)) was 104.08 and 86.4853 and 85.3702 and 83.9685. For the same molecule, the “MTT, value relative to 0 μM = 100” value ([2]; MCF-7, 5 000 b/j, koncentrace 10 μM, průměr (mean)) was 90.26, the “MTT, value relative to 0 μM = 100” value ([2]; MCF-7, 5 000 b/j, koncentrace 10 μM, single experiment (by date)) was 95.2561 and 95.1363 and 88.6166 and 84.693 and 87.5852 and the “MTT, value relative to 0 μM = 100” value ([2]; MCF-7, 5 000 b/j, koncentrace 30 μM, průměr (mean)) was 93.09. The “MTT, value relative to 0 μM = 100” value ([2]; MCF-7, 5 000 b/j, koncentrace 30 μM, single experiment (by date)) was 93.8264 and 93.1628 and 90.8333 and 94.5401, the “MTT, value relative to 0 μM = 100” value ([2]; MCF-7, 5 000 b/j, koncentrace 100 μM, průměr (mean)) was 68.42 and the “MTT, value relative to 0 μM = 100” value ([2]; MCF-7, 5 000 b/j, koncentrace 100 μM, single experiment (by date)) was 56.52 and 67.9071 and 73.7709 and 75.4946. For the same molecule, the “MTT, value relative to 0 μM = 100” value ([2]; MCF-7, 5 000 b/j, koncentrace 300 μM, průměr (mean)) was 29.85, the “MTT, value relative to 0 μM = 100” value ([2]; MCF-7, 5 000 b/j, koncentrace 300 μM, single experiment (by date)) was 23.6355 and 38.2595 and 25.5292 and 31.9956 and the “MTT, value relative to 0 μM = 100” value ([2]; MCF-7, 5 000 b/j, koncentrace 1000 μM, průměr (mean)) was 13.67. The “MTT, value relative to 0 μM = 100” value ([2]; MCF-7, 5 000 b/j, koncentrace 1000 μM, single experiment (by date)) was 18.442 and 16.1441 and 10.4709 and 9.64.
